Data as given in US10961309B2, “Reducing systemic regulatory T cell levels or activity for treatment of disease and injury of the CNS” (Yeda Research and Development Co. Ltd, priority 2014, dated 2021).
Entries after “also recorded” stand apart in the source; their conditions may differ.

Key:
Format in all cases: in vivo, mouse
[1] = tested on: splenocytes (CD4+Foxp3+ Tregs, CD4+ IFN-γ+ T cells); experiment: Flow cytometry of splenocytes; details: p300i 8.9 mg/kg/d i.p. 1 week vs vehicle (DMSO), aged mice (18 months), a day after cessation
Protocol: (§1) Mice were transcardially perfused with PBS, and tissues were treated as previously described (Baruch et al, 2013). Brains were dissected and the different brain regions were removed under a dissecting microscope (Stemi DV4; Zeiss) in PBS, and tissues were dissociated using the gentleMACS™ dissociator (Miltenyi Biotec). Choroid plexus tissues were isolated from the lateral, third and fourth ventricles of the brain, incubated at 37° C. for 45 min in PBS (with Ca^2+/Mg^2+) containing 400 U/ml collagenase type IV (Worthington Biochemical Corporation), and then manually homogenized by pipetting. Spleens were mashed with the plunger of a syringe and treated with ACK (ammonium chloride potassium) lysing buffer to remove erythrocytes. In all cases, samples were stained according to the manufacturers' protocols. All samples were filtered through a 70 μm nylon mesh, and blocked with anti-Fc CD16/32 (1:100; BD Biosciences). For intracellular staining of IFN-γ, the cells were incubated with […] (10 ng/ml; Sigma-Aldrich) and ionomycin (250 ng/ml; Sigma-Aldrich) for 6 h, and Brefeldin-A (10 μg/ml; Sigma-Aldrich) was added for the last 4 h. Intracellular labeling of cytokines was done with BD Cytofix/Cytoperm™ Plus fixation/permeabilization kit (cat. no. 555028). For Treg staining, an eBioscience FoxP3 staining buffer set (cat. no. 00-5523-00) was used. The following fluorochrome-labeled monoclonal antibodies were purchased from BD Pharmingen, BioLegend, R&D Systems, or eBiosciences, and used according to the manufacturers' protocols: PE or Alexa Fluor 450-conjugated anti-CD4; PE-conjugated anti-CD25; PerCP-Cy5.5-conjugated anti-CD45; FITC-conjugated anti-TCRβ; APC-conjugated anti-IFN-γ; APC-conjugated anti-FoxP3; Brilliant-violet-conjugated anti-CD45. Cells were analyzed on an LSRII cytometer (BD Biosciences) using FlowJo software. In each experiment, relevant negative control groups, positive controls, and single stained samples for each tissue were used to identify the populations of interest and to exclude other populations.

[2] = tested on: IFN-γ-expressing immune cells in the CP; experiment: Flow cytometry of CP IFN-γ-expressing immune cells; details: p300i 1 week vs vehicle (DMSO), aged mice (18 months), a day after cessation
Protocol: as §1, with “For Treg staining, an eBioscience FoxP3 staining buffer set (cat. no. 00-5523-00) was used. The following fluorochrome-labeled monoclonal antibodies were purchased from BD Pharmingen, BioLegend, R&D Systems, or eBiosciences, and used according to the manufacturers' protocols: PE or Alexa Fluor 450-conjugated anti-CD4; PE-conjugated anti-CD25; PerCP-Cy5.5-conjugated anti-CD45; FITC-conjugated anti-TCRβ; APC-conjugated anti-IFN-γ; APC-conjugated anti-FoxP3; Brilliant-violet-conjugated anti-CD45.” left out, “In each experiment, relevant negative control groups, positive controls, and single stained samples for each tissue were used to identify the populations of interest and to exclude other populations.” left out

Aβ plaques = experiment: Aβ plaque quantitation (immunohistochemistry)
Protocol: Tissue processing and immunohistochemistry were performed on paraffin embedded sectioned mouse (6 μm thick) and human (10 μm thick) brains. For human ICAM-1 staining, primary mouse anti-ICAM (1:20 Abcam; ab2213) antibody was used. Slides were incubated for 10 min with 3% H2O2, and a secondary biotin-conjugated anti-mouse antibody was used, followed by biotin/avidin amplification with Vectastain ABC kit (Vector Laboratories). Subsequently, 3,3′-diaminobenzidine (DAB substrate) (Zytomed kit) was applied; slides were dehydrated and mounted with xylene-based mounting solution. For tissue stainings, mice were transcardially perfused with PBS prior to tissue excision and fixation. CP tissues were isolated under a dissecting microscope (Stemi DV4; Zeiss) from the lateral, third, and fourth ventricles of the brain. For whole mount CP staining, tissues were fixated with 2.5% paraformaldehyde (PFA) for 1 hour at 4° C., and subsequently transferred to PBS containing 0.05% sodium azide. Prior to staining, the dissected tissues were washed with PBS and blocked (20% horse serum, 0.3% Triton X-100, and PBS) for 1 h at room temperature. Whole mount staining with primary antibodies (in PBS containing 2% horse serum and 0.3% Triton X-100), or secondary antibodies, was performed for 1 h at room temperature. Each step was followed by three washes in PBS. The tissues were applied to slides, mounted with Immu-mount (9990402, from Thermo Scientific), and sealed with cover-slips. For staining of sectioned brains, two different tissue preparation protocols (paraffin embedded or microtomed free-floating sections) were applied, as previously described (Baruch et al, 2013; Kunis et al, 2013). The following primary antibodies were used: mouse anti-Aβ (1:300, Covance, #SIG-39320); rabbit anti-GFP (1:100, MBL, #598); rat anti-CD68 (1:300, eBioscience, #14-0681); rat anti-ICAM-1 (1:200, Abcam, #AB2213); goat anti-GFP (1:100, Abcam, #ab6658); rabbit anti-IBA-1 (1:300, Wako, #019-19741); goat anti-IL-10 (1:20, R&D systems, #AF519); rat anti-Foxp3 (1:20, eBioscience, #13-5773-80); rabbit anti-CD3 (1:500, Dako, #IS503); mouse anti-ZO-1, mouse anti-E-Cahedrin, and rabbit anti-Claudin-1 (all 1:100, Invitrogen, #33-9100, #33-4000, #51-9000); rabbit anti-GFAP (1:200, Dako, #Z0334). Secondary antibodies included: Cy2/Cy3/Cy5-conjugated donkey anti-mouse/goat/rabbit/rat antibodies (1:200; all from Jackson Immunoresearch). The slides were exposed to Hoechst nuclear staining (1:4000; Invitrogen Probes) for 1 min. Two negative controls were routinely used in immunostaining procedures, staining with isotype control antibody followed by secondary antibody, or staining with secondary antibody alone. For Foxp3 intracellular staining, antigen retrieval from paraffin-embedded slides was performed using Retreivagen Kit (#550524, #550527; BD Pharmingen™). Microscopic analysis, was performed using a fluorescence microscope (E800; Nikon) or laser-scanning confocal microscope (Carl Zeiss, Inc.). The fluorescence microscope was equipped with a digital camera (DXM 1200F; Nikon), and with either a 20× NA 0.50 or 40× NA 0.75 objective lens (Plan Fluor; Nikon). The confocal microscope was equipped with LSM 510 laser scanning capacity (three lasers: Ar 488, HeNe 543, and HeNe 633). Recordings were made on postfixed tissues using acquisition software (NIS-Elements, F3 [Nikon] or LSM [Carl Zeiss, Inc.]). For quantification of staining intensity, total cell and background staining was measured using ImageJ software (NIH), and intensity of specific staining was calculated, as previously described (Burgess et al, 2010). Images were cropped, merged, and optimized using Photoshop CS6 13.0 (Adobe), and were arranged using Illustrator CS5 15.1 (Adobe).
From each brain, 6 μm coronal slices were collected, and eight sections per mouse, from four different pre-determined depths throughout the region of interest (dentate gyrus or cerebral cortex) were immunostained. […]

[3] = tested on: soluble Aβ1-40 and Aβ1-42; experiment: Soluble Aβ (sAβ) protein quantification by ELISA
Protocol: Tissue homogenization and sAβ protein extraction was performed as previously described (Schmidt et al, 2005). Briefly, cerebral brain parenchyma was dissected and snap-frozen and kept at −80° C. until homogenization. Proteins were sequentially extracted from samples to obtain separate fractions containing proteins of differing solubility. Samples were homogenized in 10 volumes of ice-cold tissue homogenization buffer, containing 250 mM of sucrose, 20 mM of Tris base, 1 mM of ethylenediaminetetraacetic acid (EDTA), and 1 mM of ethylene glycol tetraacetic acid (pH 7.4), using a ground glass pestle in a Dounce homogenizer. After six strokes, the homogenate was mixed 1:1 with 0.4% diethylamine (DEA) in a 100-mM NaCl solution before an additional six strokes, and then centrifuged at 135,000 g at 4° C. for 45 min. The supernatant (DEA-soluble fraction containing extracellular and cytosolic proteins) was collected and neutralized with 10% of 0.5M of Tris-HCl (pH 6.8). Aβ1-40 and Aβ1-42 were individually measured by enzyme-linked immunosorbent assay (ELISA) from the soluble fraction using commercially available kits (Biolegend; #SIG-38954 and #SIG-38956, respectively) according to the manufacturer instructions.

[4] = two courses of p300i, interval of 1 month

CC1=NN(c2ccc(C(=O)O)cc2)C(=O)/C1=C\c1ccc(-c2cc(C)c(C)cc2[N+](=O)[O-])o1 [p300i, 4-(4-((5-(4,5-dimethyl-2-nitrophenyl)furan-2-yl)methylene)-3-methyl-5-oxo-4,5-dihydro-1H-pyrazol-1-yl)benzoic acid]
IFN-γ-expressing cells (CD4+ T cells) in the spleen [1]: elevated levels; also recorded: elevation | IFN-γ-expressing immune cells in the CP [2]: elevated levels; also recorded: elevation | cerebral Aβ plaque load (Aβ plaques; p300i 1 week, examined 3 weeks later, 10-month old AD-Tg mice): significant reduction in cerebral Aβ plaque load | cerebral plaque load (cortex 5th layer) (Aβ plaques; single course of p300i, examined 2 months later, AD-Tg mice age 7 months): reduction of cerebral plaque load was evident | reduction of cerebral plaque load, two courses vs single course (Aβ plaques; two courses of p300i with a 1-month interval): stronger | cerebral sAβ levels ([3]; one course of p300i): effective in reducing cerebral sAβ | cerebral sAβ levels [3, 4]: effective in reducing cerebral sAβ | effect on sAβ1-42, repeated courses vs one course [3, 4]: stronger
